The results in this text go back to the NIST ThermoML archive (doi:10.1021/je100819f).

Numbers after ± are expanded uncertainties.

For the series the following is noted: Crystal; DTA.

For the compound `O=C1C=CC(=O)N1c1cc(F)c(Br)c(F)c1` [1-(4-bromo-3,5-difluorophenyl)-1H-pyrrole-2,5-dione], the Normal melting temperature is 197.5 ± 0.7 °C.
